Data published in patent US8192962B2, “Processes for detecting toxic substances” (Daikin Industries, Ltd., priority 2001, dated 2012).

Test system: Metabolism protein genes
Assay: DNA chip mRNA expression in yeast, metabolism protein genes (Table 7)
Format: cell-based, Saccharomyces cerevisiae S288C
Experimental: Yeast (Saccharomyces cerevisiae S288C (α SUC2mal mel gap2 CUP1)) were incubated at 25° C. on YPD medium (yeast extract 1%, polypepton 2%, glucose 2%). One of toxic chemical substances was added to the cells at logarithmic growth phase, and the cells were further incubated for two hours. Cells were cultured without any chemical substance in the same condition, and were used as control. Concentrations of the chemical substances were defined to inhibit the growth of the yeast but not lead to death.
After completion of the incubation, the culture was centrifuged to collect the cells. To the cells, sodium acetate buffer (50 mM sodium acetate, 10 mM EDTA, 1% SDS) was added, and the mixture was shaken at 65° C. for five minutes, followed by returning to room temperature, and obtaining the supernatant, of which the procedures were repeated two times. To the supernatant, ½ amount of a solution of phenol/chloroform was added, and the mixture was centrifuged to give a supernatant, which was added with an equal amount of chloroform, and the mixture was centrifuged to give a supernatant. To the supernatant, an equal amount of isopropanol containing 0.3 M sodium acetate was added, and the mixture was allowed to stand at room temperature for 30 minutes, after which the mixture was centrifuged to give a sediment of the whole RNAs. Seventy % ethanol was added to the sediment, and the mixture was again centrifuged to give a sediment, which was then dried and dissolved in water. mRNA was isolated from the whole RNAs as followings. In view of the fact that a poly A chain is attached to the 3′ terminus of mRNA, a polynucleotide having a poly T structure which was immobilized on the surface of latex beads was used to trap the mRNA, and then the mRNA was washed and eluted with spine column (Oligotex-dT30<Super>mRNA Purification Kit, Takara). Reverse transcription of the mRNA was conducted with a reverse transcriptase (Super Script II Reverse Transcriptase; catalogue No. 18064-014, GibcoBRL) using fluorescence-labeled nucleotides to give cDNAs that were introduced with Cy3-dUTP or Cy5-dUTP during the reverse transcription.
The labeled cDNAs were dissolved in TE buffer (10mM Tris-HCl/1 mM EDTA, pH8.0), and the solution was dropped on the DNA chip containing the whole genes of yeast (DNA Chip Research Inc. Japan) so that the cDNAs were hybridized on the DNA chip at 65° C. for over 12 hours. The fluoresces intensity of the DNA chip was read with a scanner, and the ratio relative to the fluorescence intensity resulting from the absence of chemical substance was estimated as the following, which is shown in Tables 1 to 9: […]

SMILES: [Cl][Hg][Cl] [(3), HgCl2]
- The level of expressed mRNA in the presence of chemical substance/The level of expressed mRNA in the absence of chemical substance (yeast gene YJR155W): 1.4
- The level of expressed mRNA in the presence of chemical substance/The level of expressed mRNA in the absence of chemical substance (yeast gene YKL035W): 4.8
- level of expressed mRNA in the presence/in the absence of chemical substance (yeast gene YKL060C): 2.5
- The level of expressed mRNA in the presence of chemical substance/The level of expressed mRNA in the absence of chemical substance (yeast gene YKL091C): 1.4
- The level of expressed mRNA in the presence of chemical substance/The level of expressed mRNA in the absence of chemical substance (yeast gene YKL104C): 1.6
- level of expressed mRNA in the presence/in the absence of chemical substance (yeast gene YKL148C): 3.7
- The level of expressed mRNA in the presence of chemical substance/The level of expressed mRNA in the absence of chemical substance (yeast gene YKL152C): 1.9
- level of expressed mRNA in the presence/in the absence of chemical substance (yeast gene YKL157W): 2.3
- The level of expressed mRNA in the presence of chemical substance/The level of expressed mRNA in the absence of chemical substance (yeast gene YKL213C): 1.0
- The level of expressed mRNA in the presence of chemical substance/The level of expressed mRNA in the absence of chemical substance (yeast gene YKL215C): 1.3
- level of expressed mRNA in the presence/in the absence of chemical substance (yeast gene YKR034W): 1.1
- The level of expressed mRNA in the presence of chemical substance/The level of expressed mRNA in the absence of chemical substance (yeast gene YLL058W): 1.4
- level of expressed mRNA in the presence/in the absence of chemical substance (yeast gene YLR006C): 0.9
- level of expressed mRNA in the presence/in the absence of chemical substance (yeast gene YLR044C): 2.2
- level of expressed mRNA in the presence/in the absence of chemical substance (yeast gene YLR056W): 2.5
- level of expressed mRNA in the presence/in the absence of chemical substance (yeast gene YLR058C): 5.5
- level of expressed mRNA in the presence/in the absence of chemical substance (yeast gene YLR081W): 2.8
- level of expressed mRNA in the presence/in the absence of chemical substance (yeast gene YLR089C): 2.1
- The level of expressed mRNA in the presence of chemical substance/The level of expressed mRNA in the absence of chemical substance (yeast gene YLR180W): 2.4
- The level of expressed mRNA in the presence of chemical substance/The level of expressed mRNA in the absence of chemical substance (yeast gene YLR273C): 1.3
- level of expressed mRNA in the presence/in the absence of chemical substance (yeast gene YLR284C): 3.8
- The level of expressed mRNA in the presence of chemical substance/The level of expressed mRNA in the absence of chemical substance (yeast gene YLR299W): 1.5
- The level of expressed mRNA in the presence of chemical substance/The level of expressed mRNA in the absence of chemical substance (yeast gene YLR300W): 0.8
- level of expressed mRNA in the presence/in the absence of chemical substance (yeast gene YLR304C): 5.0
- The level of expressed mRNA in the presence of chemical substance/The level of expressed mRNA in the absence of chemical substance (yeast gene YLR307W): 0.7
- The level of expressed mRNA in the presence of chemical substance/The level of expressed mRNA in the absence of chemical substance (yeast gene YLR348C): 1.2
- level of expressed mRNA in the presence/in the absence of chemical substance (yeast gene YLR354C): 2.3
- level of expressed mRNA in the presence/in the absence of chemical substance (yeast gene YLR372W): 1.7
- level of expressed mRNA in the presence/in the absence of chemical substance (yeast gene YML022W): 2.0
- The level of expressed mRNA in the presence of chemical substance/The level of expressed mRNA in the absence of chemical substance (yeast gene YML054C): 1.3
- The level of expressed mRNA in the presence of chemical substance/The level of expressed mRNA in the absence of chemical substance (yeast gene YML070W): 2.5
- The level of expressed mRNA in the presence of chemical substance/The level of expressed mRNA in the absence of chemical substance (yeast gene YML100W): 10.6
- The level of expressed mRNA in the presence of chemical substance/The level of expressed mRNA in the absence of chemical substance (yeast gene YMR008C): 1.4
- level of expressed mRNA in the presence/in the absence of chemical substance (yeast gene YMR011W): 9.4
- level of expressed mRNA in the presence/in the absence of chemical substance (yeast gene YMR015C): 1.9
- The level of expressed mRNA in the presence of chemical substance/The level of expressed mRNA in the absence of chemical substance (yeast gene YMR020W): 0.9
- level of expressed mRNA in the presence/in the absence of chemical substance (yeast gene YMR083W): 2.6
- The level of expressed mRNA in the presence of chemical substance/The level of expressed mRNA in the absence of chemical substance (yeast gene YMR105C): 5.0
- The level of expressed mRNA in the presence of chemical substance/The level of expressed mRNA in the absence of chemical substance (yeast gene YMR189W): 1.9
- level of expressed mRNA in the presence/in the absence of chemical substance (yeast gene YMR205C): 2.3
- level of expressed mRNA in the presence/in the absence of chemical substance (yeast gene YMR261C): 3.6
- The level of expressed mRNA in the presence of chemical substance/The level of expressed mRNA in the absence of chemical substance (yeast gene YMR271C): 1.3
- The level of expressed mRNA in the presence of chemical substance/The level of expressed mRNA in the absence of chemical substance (yeast gene YMR296C): 1.2
- level of expressed mRNA in the presence/in the absence of chemical substance (yeast gene YMR323W): 2.9
- The level of expressed mRNA in the presence of chemical substance/The level of expressed mRNA in the absence of chemical substance (yeast gene YNL012W): 1.8
- level of expressed mRNA in the presence/in the absence of chemical substance (yeast gene YNL025C): 1.4
- The level of expressed mRNA in the presence of chemical substance/The level of expressed mRNA in the absence of chemical substance (yeast gene YNL045W): 2.0
- The level of expressed mRNA in the presence of chemical substance/The level of expressed mRNA in the absence of chemical substance (yeast gene YNL104C): 3.0
- The level of expressed mRNA in the presence of chemical substance/The level of expressed mRNA in the absence of chemical substance (yeast gene YNL106C): 0.8
- The level of expressed mRNA in the presence of chemical substance/The level of expressed mRNA in the absence of chemical substance (yeast gene YNL169C): 1.4
- level of expressed mRNA in the presence/in the absence of chemical substance (yeast gene YNL192W): 1.5
- The level of expressed mRNA in the presence of chemical substance/The level of expressed mRNA in the absence of chemical substance (yeast gene YNL231C): 0.8
- The level of expressed mRNA in the presence of chemical substance/The level of expressed mRNA in the absence of chemical substance (yeast gene YNL322C): 1.9
- The level of expressed mRNA in the presence of chemical substance/The level of expressed mRNA in the absence of chemical substance (yeast gene YNL331C): 1.3
- The level of expressed mRNA in the presence of chemical substance/The level of expressed mRNA in the absence of chemical substance (yeast gene YNL332W): 1.1
- The level of expressed mRNA in the presence of chemical substance/The level of expressed mRNA in the absence of chemical substance (yeast gene YNR019W): 1.6
- The level of expressed mRNA in the presence of chemical substance/The level of expressed mRNA in the absence of chemical substance (yeast gene YNR033W): 0.8
- The level of expressed mRNA in the presence of chemical substance/The level of expressed mRNA in the absence of chemical substance (yeast gene YNR059W): 0.2
- The level of expressed mRNA in the presence of chemical substance/The level of expressed mRNA in the absence of chemical substance (yeast gene YOL058W): 1.7
- level of expressed mRNA in the presence/in the absence of chemical substance (yeast gene YOL086C): 2.2
- level of expressed mRNA in the presence/in the absence of chemical substance (yeast gene YOL108C): 0.4
- level of expressed mRNA in the presence/in the absence of chemical substance (yeast gene YOL116W): 0.9
- The level of expressed mRNA in the presence of chemical substance/The level of expressed mRNA in the absence of chemical substance (yeast gene YOL126C): 1.0
- The level of expressed mRNA in the presence of chemical substance/The level of expressed mRNA in the absence of chemical substance (yeast gene YOL153C): 2.1
- level of expressed mRNA in the presence/in the absence of chemical substance (yeast gene YOL156W): 2.5
- The level of expressed mRNA in the presence of chemical substance/The level of expressed mRNA in the absence of chemical substance (yeast gene YOL165C): 1.8
- level of expressed mRNA in the presence/in the absence of chemical substance (yeast gene YOR002W): 1.9
- level of expressed mRNA in the presence/in the absence of chemical substance (yeast gene YOR085W): 1.9
- The level of expressed mRNA in the presence of chemical substance/The level of expressed mRNA in the absence of chemical substance (yeast gene YOR099W): 2.1
- level of expressed mRNA in the presence/in the absence of chemical substance (yeast gene YOR103C): 1.3
- level of expressed mRNA in the presence/in the absence of chemical substance (yeast gene YOR108W): 2.3
- level of expressed mRNA in the presence/in the absence of chemical substance (yeast gene YOR128C): 2.1
- The level of expressed mRNA in the presence of chemical substance/The level of expressed mRNA in the absence of chemical substance (yeast gene YOR130C): 1.4
- level of expressed mRNA in the presence/in the absence of chemical substance (yeast gene YOR142W): 3.4
- level of expressed mRNA in the presence/in the absence of chemical substance (yeast gene YOR176W): 2.7
- level of expressed mRNA in the presence/in the absence of chemical substance (yeast gene YOR178C): 4.8
- level of expressed mRNA in the presence/in the absence of chemical substance (yeast gene YOR251C): 1.3
- The level of expressed mRNA in the presence of chemical substance/The level of expressed mRNA in the absence of chemical substance (yeast gene YOR336W): 0.7
- The level of expressed mRNA in the presence of chemical substance/The level of expressed mRNA in the absence of chemical substance (yeast gene YOR347C): 2.1
- level of expressed mRNA in the presence/in the absence of chemical substance (yeast gene YOR348C): 1.2
- The level of expressed mRNA in the presence of chemical substance/The level of expressed mRNA in the absence of chemical substance (yeast gene YPL017C): 0.8
- level of expressed mRNA in the presence/in the absence of chemical substance (yeast gene YPL028W): 2.6
- level of expressed mRNA in the presence/in the absence of chemical substance (yeast gene YPL057C): 3.2
- level of expressed mRNA in the presence/in the absence of chemical substance (yeast gene YPL135W): 2.5
- level of expressed mRNA in the presence/in the absence of chemical substance (yeast gene YPL148C): 0.9
- The level of expressed mRNA in the presence of chemical substance/The level of expressed mRNA in the absence of chemical substance (yeast gene YPR026W): 5.0
- level of expressed mRNA in the presence/in the absence of chemical substance (yeast gene YPR113W): 3.7
- level of expressed mRNA in the presence/in the absence of chemical substance (yeast gene YPR165W): 1.6
- The level of expressed mRNA in the presence of chemical substance/The level of expressed mRNA in the absence of chemical substance (yeast gene YPR167C): 1.9
- level of expressed mRNA in the presence/in the absence of chemical substance (yeast gene YPR183W): 3.5
